How the values were obtained:
CT26 cells = test: CT26 tumor xenograft model, tumor volume; assay type: in vivo, BALB/c mice; conditions: Example 18: 50 nmol, injections days 7, 9, 11
Description: We used a CT26 tumor xenograft model to test the anti-cancer activity of H1b-ADP. Tumor cells (2×10^5 per 100 uL CT26 cells) were inoculated subcutaneously into the right flank of BALB/c mice. At day 6, mice whose tumors had reached 3-5 mm in diameter were randomized and grouped into three groups (n=8 each group), control, HMP-1bP (580 ug), and H1b-ADP (1.2 ug). Injections were performed using a total volume of 20 uL at days 6, 8, 10, 12, and 14 post inoculation. Tumor volumes were calculated every 2 days from caliper measurements of tumor dimension using the formula (L×W^2)/2, where L is the longer measurement.
To test whether H1b-ADP could augment an anti-tumor response by a checkpoint inhibitor, we tested the effects of co-administration with an anti-PD1 antibody. Tumor cells (2×10^5 per 100 μL CT26 cells) were inoculated subcutaneously into the left and right flanks of BALB/c mice. At day 7, mice whose tumors had reached 5 mm in diameter were randomized and grouped (n=8 each group) into the following four groups: anti-PD1 antibody; rat IgG; H1b-ADP+rat IgG; H1b-ADP+anti-PD1 antibody. We utilized RMP1-14 as the anti-PD1 antibody (10 mg/kg) and a rat IgG 2a (2A3) as the control IgG. Each of the anti-PD-1 antibody and the control IgG was administered intraperitoneally in a 200 μL volume on days 6, 10, 12, and 17 post-inoculation. H1b-ADP (6.2 μg) was intratumorally injected in a 20 μL volume at day 6, 8, 10, 12, and 15. Tumor volumes were calculated every 2 days from caliper measurements of tumor dimensions using the formula (L×W^2)/2, where L is the longer measurement. The results are shown in FIG. 13A for injected tumors and FIG. 13B for distant tumors. […]
The experiment was carried out as combo experiments of anti-PD1 except for the following variations. At day 6, mice whose tumors had reached 5 mm in diameter were randomized and grouped into the following four groups: c-di-AM(PS)2; PBS; H1b-ADP; H1b-ADP+c-di-AM(PS)2. We utilized c-di-AM(PS)2 as the STING agonist. Each of the c-di-AM(PS)2 (1 μg) and H1b-ADP (6.2 μg) was administered intratumorally in a 20 μL volume on days 6, 7, and 9 post-inoculation.
The experiment was carried out as combo experiments of anti-PD-1 except for the following variations. At day 6, mice whose tumors had reached 5 mm in diameter were randomized and grouped into the following four groups: anti-CD4 antibody (GK1.5 clone, BE0003-1, BioXcell); rat IgG; H1b-ADP+rat IgG; H1b-ADP+anti-CD4 antibody. Each of the anti-CD4 antibody (200 μg) and the control IgG (200 μg) was administered intraperitoneally in a 200 μL volume on days 3, 4, 8 post-inoculation. H1b-ADP (6.2 μg) was administered intratumorally in a 20 μL volume on days 6, 8, 10, 12, 14 post-inoculation.
The experiment was carried out as combo experiments of anti-PD-1 except for the following variations. At day 6, mice whose tumors had reached 5 mm in diameter were randomized and grouped into the following four groups: Resquimod; PBS; H1b-ADP; H1b-ADP+Resquimod. Resquimod (10 μg) and H1b-ADP (6.2 μg) were administered intratumorally in a 20 μL volume on days 6, 8, 11 post-inoculation.
We used a CT26 tumor xenograft model to test the anti-cancer activity of H1b-ADP derivative Compounds 1 and 2. Tumor cells (2×10^5 per 100 uL CT26 cells) were inoculated subcutaneously into the right flank of BALB/c mice. At day 7, mice whose tumors had reached 3-5 mm in diameter were randomized and grouped into three groups (n=9 each group), control, Compound 1 (50 nmol), and Compound 2 (50 nmol). Injections were performed using a total volume of 20 uL at days 7, 9, and 11 post inoculation. Tumor volumes were calculated every 2 days from caliper measurements of tumor dimension using the formula (L×W^2)/2, where L is the longer measurement.

ALPK1 = ALPK1 (Homo sapiens, UniProt Q96QP1); test: IL8 secretion in HEK293 cells (IL8 ELISA) as indicator of ALPK1 activation; conditions: for IL8 secretion in HEK293 cells: 4 hours
ALPK1, sequence (Q96QP1 whole entry): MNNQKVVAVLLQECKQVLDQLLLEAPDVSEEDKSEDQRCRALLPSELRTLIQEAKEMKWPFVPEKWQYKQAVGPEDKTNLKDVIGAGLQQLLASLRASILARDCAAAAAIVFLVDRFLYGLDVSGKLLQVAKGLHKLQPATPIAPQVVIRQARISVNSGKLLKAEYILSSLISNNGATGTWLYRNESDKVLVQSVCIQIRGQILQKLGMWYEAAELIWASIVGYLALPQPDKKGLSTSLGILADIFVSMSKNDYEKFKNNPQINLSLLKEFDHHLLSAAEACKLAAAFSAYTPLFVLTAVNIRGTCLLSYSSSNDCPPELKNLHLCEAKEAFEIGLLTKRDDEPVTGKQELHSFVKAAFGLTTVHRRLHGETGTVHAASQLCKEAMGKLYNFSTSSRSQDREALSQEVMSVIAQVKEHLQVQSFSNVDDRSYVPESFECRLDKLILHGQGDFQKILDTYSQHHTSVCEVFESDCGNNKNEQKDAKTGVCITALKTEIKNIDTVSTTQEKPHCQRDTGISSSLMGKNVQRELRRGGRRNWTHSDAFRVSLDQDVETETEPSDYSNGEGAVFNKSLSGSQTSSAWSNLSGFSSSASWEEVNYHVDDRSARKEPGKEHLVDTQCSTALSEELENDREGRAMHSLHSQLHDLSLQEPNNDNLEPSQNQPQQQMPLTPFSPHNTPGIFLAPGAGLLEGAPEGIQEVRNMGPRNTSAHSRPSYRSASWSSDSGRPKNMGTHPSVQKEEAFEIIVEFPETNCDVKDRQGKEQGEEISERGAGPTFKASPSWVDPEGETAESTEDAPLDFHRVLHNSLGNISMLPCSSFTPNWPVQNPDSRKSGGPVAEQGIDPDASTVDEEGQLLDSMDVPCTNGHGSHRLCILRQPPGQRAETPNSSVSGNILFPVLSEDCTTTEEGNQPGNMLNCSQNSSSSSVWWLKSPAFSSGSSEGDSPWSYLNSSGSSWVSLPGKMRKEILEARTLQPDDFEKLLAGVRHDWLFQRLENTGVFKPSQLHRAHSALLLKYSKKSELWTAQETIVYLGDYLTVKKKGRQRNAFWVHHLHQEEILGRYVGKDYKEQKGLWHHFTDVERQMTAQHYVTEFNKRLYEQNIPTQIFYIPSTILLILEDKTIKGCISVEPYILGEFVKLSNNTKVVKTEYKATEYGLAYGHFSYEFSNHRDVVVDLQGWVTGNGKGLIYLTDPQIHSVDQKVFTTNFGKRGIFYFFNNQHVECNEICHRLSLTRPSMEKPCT
Description: We pre-mixed H1b-ADP with phosphatase inhibitor sodium orthovanadate (Na3VO4) before incubation with FBS.
In these experiments, serial dilutions of the compounds were added to the tissue culture media of HEK293 cells with (FIG. 27B, FIG. 28B, FIG. 29B) or without (FIG. 26, FIG. 27A, FIG. 28A, FIG. 29A) 10% FBS, as indicated in the figures. After 4 hours, the cell supernatant was collected and analyzed for IL8 concentration using IL8 ELISA (BD) as an indicator of ALPK1 activation.

| SMILES | tumor growth (CT26 cells) | IL8 secretion in HEK293 cells (ALPK1; without FBS) | IL8 secretion in HEK293 cells (ALPK1; with 10% FBS) | resistance to serum degradation (ALPK1; compare without FBS and with 10% FBS (FIG. 27A and FIG. 27B)) |
| --- | --- | --- | --- | --- |
| Nc1ncnc2c1ncn2[C@@H]1O[C@H](COP(=O)(O)OP(=O)(O)O[C@@H]2OC([C@H](O)CO)[C@@H](O)C(O)C2O)C(F)C1O (stereo partly drawn) [Compound 2, Adenosine-3′-fluoro-5′-(D-glycero-β-D-mannoheptopyranosyl) diphosphate] | reduced tumor growth | activate IL8 secretion |  |  |
| CC(=O)OC[C@H](F)[C@H]1O[C@@H](OP(=O)(O)OP(=O)(O)OC[C@H]2O[C@@H](n3cnc4c(N)ncnc43)[C@H](O)[C@@H]2O)[C@@H](OC(C)=O)[C@@H](OC(C)=O)[C@@H]1OC(C)=O [Compound 3, (2S,3S,4S,5S,6S)-2-((S)-2-acetoxy-1-fluoroethyl)-6-(((((((2R,3S,4R,5R)-5-(6-amino-9H-purin-9-yl)-3,4-dihydroxytetrahydrofuran-2-yl)methoxy)(hydroxy)phosphoryl)oxy)(hydroxy)phosphoryl)oxy)tetrahydro-2H-pyran-3,4,5-triyl triacetate] |  | activate IL8 secretion | activate IL8 secretion |  |
| CC(=O)OC[C@H]1O[C@@H](OP(=O)(O)OP(=O)(O)OC[C@H]2O[C@@H](n3cnc4c(N)ncnc43)[C@H](O)[C@@H]2O)[C@@H](OC(C)=O)[C@@H](OC(C)=O)[C@@H]1OC(C)=O [Compound 5, (2R,3R,4S,5S,6S)-2-(acetoxymethyl)-6-(((((((2R,3S,4R,5R)-5-(6-amino-9H-purin-9-yl)-3,4-dihydroxytetrahydrofuran-2-yl)methoxy)(hydroxy)phosphoryl)oxy)(hydroxy)phosphoryl)oxy)tetrahydro-2H-pyran-3,4,5-triyl triacetate] |  | increased IL8 secretion | increased IL8 secretion |  |
| CO[C@@H]1[C@H](OC)[C@@H](COP(=O)(O)OP(=O)(O)O[C@@H]2O[C@H]([C@@H](COC(C)=O)OC(C)=O)[C@@H](OC(C)=O)[C@H](OC(C)=O)[C@@H]2OC(C)=O)O[C@H]1n1cnc2c(N)ncnc21 [Compound 13, (2S,3S,4S,5R,6R)-2-(((((((2R,3R,4R,5R)-5-(6-amino-9H-purin-9-yl)-3,4-dimethoxytetrahydrofuran-2-yl)methoxy)(hydroxy)phosphoryl)oxy)(hydroxy)phosphoryl)oxy)-6-((R)-1,2-diacetoxyethyl)tetrahydro-2H-pyran-3,4,5-triyl triacetate] |  | increased IL8 secretion | increased IL8 secretion |  |
| COC1C(OC)[C@@H](COP(=O)(O)OP(=O)(O)O[C@@H]2OC([C@H](O)CO)[C@@H](O)C(O)C2O)O[C@H]1n1cnc2c(N)ncnc21 (stereo partly drawn) [Compound 14, Adenosine-2′3′-dimethoxy-5′-(D-glycero-β-D-mannoheptopyranosyl) diphosphate] |  | increased IL8 secretion | increased IL8 secretion |  |
| CC(=O)OC[C@@H](OC(C)=O)[C@H]1O[C@@H](OP(=O)(O)OP(O)(=S)OC[C@H]2O[C@@H](n3cnc4c(N)ncnc43)[C@H](O)[C@@H]2O)[C@@H](OC(C)=O)[C@@H](OC(C)=O)[C@@H]1OC(C)=O (stereo partly drawn) [Compound 15, (2S,3S,4S,5R,6R)-2-(((((((2R,3S,4R,5R)-5-(6-amino-9H-purin-9-yl)-3,4-dihydroxytetrahydrofuran-2-yl)methoxy)(hydroxy)phosphorothioyl)oxy)(hydroxy)phosphoryl)oxy)-6-((R)-1,2-diacetoxyethyl)tetrahydro-2H-pyran-3,4,5-triyl triacetate] |  | activate IL8 secretion | activate IL8 secretion | unexpected resistance to serum degradation |
| Nc1ncnc2c1ncn2[C@@H]1O[C@H](COP(O)(=S)OP(=O)(O)O[C@@H]2OC([C@H](O)CO)[C@@H](O)C(O)C2O)C(O)C1O (stereo partly shown) [Compound 16] |  | increased IL8 secretion | increased IL8 secretion |  |
| CC(=O)OC[C@@H](OC(C)=O)[C@H]1O[C@@H](OP(=O)(O)OP(=O)(O)OC[C@H]2O[C@@H](n3cnc4c(N)ncnc43)[C@H](O)[C@H]2F)[C@@H](OC(C)=O)[C@@H](OC(C)=O)[C@@H]1OC(C)=O [Compound 17, (2S,3S,4S,5R,6R)-2-(((((((2R,3R,4S,5R)-5-(6-amino-9H-purin-9-yl)-3-fluoro-4-hydroxytetrahydrofuran-2-yl)methoxy)(hydroxy)phosphoryl)oxy)(hydroxy)phosphoryl)oxy)-6-((R)-1,2-diacetoxyethyl)tetrahydro-2H-pyran-3,4,5-triyl triacetate] |  | increased IL8 secretion | increased IL8 secretion |  |
| CC(=O)OC[C@@H](OC(C)=O)[C@H]1O[C@@H](OP(=O)(O)OP(=O)(O)OC[C@@]2(F)O[C@@H](n3cnc4c(N)ncnc43)[C@@H]3OC(C)(C)O[C@@H]32)[C@@H](OC(C)=O)[C@@H](OC(C)=O)[C@@H]1OC(C)=O [Compound 19, (2S,3S,4S,5R,6R)-2-(((((((3aS,4S,6R,6aR)-6-(6-amino-9H-purin-9-yl)-4-fluoro-2,2-dimethyltetrahydrofuro[3,4-d][1,3]dioxol-4-yl)methoxy)(hydroxy)phosphoryl)oxy)(hydroxy)phosphoryl)oxy)-6-((R)-1,2-diacetoxyethyl)tetrahydro-2H-pyran-3,4,5-triyl triacetate] |  | activate IL8 secretion | activate IL8 secretion |  |
| CC(=O)OC[C@@H](OC(C)=O)[C@H]1O[C@@H](OP(=O)(O)OP(=O)(O)OC[C@@]2(F)O[C@@H](n3cnc4c(N)ncnc43)[C@H](O)[C@@H]2O)[C@@H](OC(C)=O)[C@@H](OC(C)=O)[C@@H]1OC(C)=O [Compound 20, (2S,3S,4S,5R,6R)-2-(((((((2S,3S,4R,5R)-5-(6-amino-9H-purin-9-yl)-2-fluoro-3,4-dihydroxytetrahydrofuran-2-yl)methoxy)(hydroxy)phosphoryl)oxy)(hydroxy)phosphoryl)oxy)-6-((R)-1,2-diacetoxyethyl)tetrahydro-2H-pyran-3,4,5-triyl triacetate] |  | activate IL8 secretion | activate IL8 secretion |  |
| CC(=O)OC[C@H](OC(C)=O)[C@H]1O[C@@H](OP(=O)(O)OP(=O)(O)OC[C@H]2O[C@@H](n3cnc4c(N)ncnc43)[C@H](O)[C@@H]2O)[C@@H](OC(C)=O)[C@@H](OC(C)=O)[C@@H]1OC(C)=O [Compound 21, (2S,3S,4S,5R,6R)-2-(((((((2R,3S,4R,5R)-5-(6-amino-9H-purin-9-yl)-3,4-dihydroxytetrahydrofuran-2-yl)methoxy)(hydroxy)phosphoryl)oxy)(hydroxy)phosphoryl)oxy)-6-((S)-1,2-diacetoxyethyl)tetrahydro-2H-pyran-3,4,5-triyl triacetate] |  | increased IL8 secretion | increased IL8 secretion |  |
| Nc1ncnc2c1ncn2[C@@H]1O[C@H](COP(=O)(O)OP(=O)(O)O[C@@H]2OC([C@@H](O)CO)[C@@H](O)C(O)C2O)C(O)C1O (stereo partly drawn) [Compound 22, Adenosine-5′-(L-glycero-β-D-mannoheptopyranosyl) diphosphate] |  | increased IL8 secretion | increased IL8 secretion |  |

From US11186606B2, “Compositions and methods of modulating the immune response by activating alpha protein kinase 1” (Shanghai Yao Yuan Biotechnology Co., Ltd., priority 2017, dated 2021)
